Tests used:
[1] = tested on: bleomycin-induced pulmonary fibrosis mouse model; assay: Bleomycin-induced pulmonary fibrosis mouse model, hydroxyproline in lung tissue lysate by ELISA; format: in vivo, C57BL/6N mice; conditions: oral, twice a day, 14 days
Description: C57BL/6N mice were anesthetized using isoflurane. Afterwards, an incision was made in the center of the neck to expose the airway. Bleomycin dissolved in physiological saline injection solution was slowly injected at 1.25 mg/kg into the exposed upper respiratory tract using an insulin syringe. Afterwards, the insulin syringe was removed and the incision was sutured. Afterwards, test compounds were administered orally twice a day for 14 days, and then an autopsy was performed. The mouse's left lung tissue was fixed with 10% formalin, paraffin sections were made, and the degree of lung fibrosis was evaluated using H&E staining. The right lung was tissue lysed for qPCR and hydroxyproline measurements. Afterwards, it was used in each experiment to evaluate the expression of lung fibrosis-related genes and the degree of collagen deposition in the lung.
According to Reference Example 2, test compounds were administered to a mouse model of bleomycin-induced pulmonary fibrosis and an autopsy was performed. The left lung tissue of the mouse was fixed in 10% neutral formalin for one day and paraffin sections were made. To remove paraffin around the tissue, it was sequentially reacted in xylene, 95, 90, and 70% ethanol solutions for 5 minutes each. […] The other half of the tissue was lysed and the lysate was analyzed using a hydroxyproline ELISA kit.

[2] = tested on: pulmonary fibrosis mouse model induced by radiation; assay: Radiation-induced pulmonary fibrosis mouse model, collagen deposition by Masson's trichrome staining of lung tissue; format: in vivo, C57BL/6 mice; conditions: radiation 90 Gy to chest; oral, twice a day, 14 days; nintedanib 30 mg/kg (G2), Chemical Formula 1 compound 10 mg/kg (G3), combination 10 + 30 mg/kg (G4); compared to vehicle group (G1)
Description: The test compound was administered orally to C57BL/6 male 8-week-old mice, and 1 hour later, radiation (90 Gy, 4 mm collimator) was irradiated to the chest at a size of 3 mm. Afterwards, test compounds were administered orally twice a day for 14 days, and then an autopsy was performed. Mouse lung tissue was fixed with 10% formalin, paraffin sections were made, and the degree of collagen deposition within the tissue was confirmed using trichrome staining.
According to Reference Example 1, test compounds were administered to a mouse model of radiation-induced pulmonary fibrosis and an autopsy was performed. Mouse lung tissue was fixed in 10% neutral formalin for one day and paraffin sections were made. To remove paraffin around the tissue, it was sequentially reacted in xylene, 95, 90, and 70% ethanol solutions for 5 minutes each. To activate the tissue antigen, the tissue was immersed in a 0.1 M citric acid (pH 6.0) solution and boiled for 20 minutes. Then, it was sequentially reacted with Bouin's solution for 1 minute, Weigert's hematoxylin for 10 minutes, Phosphotunstic/phosphomolydic acid for 10 minutes, aniline blue for 5 minutes, and 1% acetic acid for 1 minute. Next, after a dehydration process, it was sealed with a cover glass and observed under a microscope (Carl Zeiss Vision).

SMILES	collagen deposition, primary evaluation index of pulmonary fibrosis (conclusion of Example 2) ([1]; bleomycin-induced model, doses as in Table 2)	anti-fibrotic effect of suppressing collagen deposition (trichrome staining, FIGS. 1 and 2) [2]	expression of hydroxyproline in lung tissue (FIG. 5) ([1]; bleomycin 1.25 mg/kg, Chemical Formula 1 compound 30, 100, 200 mg/kg (G3-G5), combination 60 + 30 mg/kg (G6), nintedanib 60 mg/kg (G7), compared to vehicle group (G2))
C[C@@H]1CN(c2ccc(S(C)(=O)=O)cc2F)CCN1c1nccc(C(=O)N[C@H]2C3CC4CC2C[C@](O)(C4)C3)n1 [compound of Chemical Formula 1, 2-((R)-4-(2-fluoro-4-(methylsulfonyl)phenyl)-2-methylpiperazin-1-yl)-N-((1R,2s,3S,5S,7S)-5-hydroxyadamantan-2-yl)pyrimidine-4-carboxamide]	significantly inhibits collagen deposition	significantly inhibits collagen deposition	
COC(=O)c1ccc2c(c1)NC(=O)/C2=C(\Nc1ccc(N(C)C(=O)CN2CCN(C)CC2)cc1)c1ccccc1 [nintedanib]		high significance	significant differences were confirmed in all administration groups except the nintedanib single administration group (G7)

— patent US20240261283A1, “PHARMACEUTICAL PREPARATION FOR PREVENTING OR TREATING PULMONARY FIBROSIS” (J2H BIOTECH INC., priority 2021, published 2024)
